Measured values reported in PubChem BioAssay (NCI).
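Results reflect a 48-hour exposure of cells in 96-well plates to compound at five concentrations. Definition used: TGI = concentration required for complete inhibition of growth.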

Key:
Experiment in all cases: NCI tumour cell line growth inhibition, 48 h
[1] = tested on: 786-0 renal
[2] = tested on: A498 renal
[3] = tested on: A549 NSCLC
[4] = tested on: ACHN renal
[5] = tested on: HCT-116 colon
[6] = tested on: HCT-15 colon
[7] = tested on: HOP-92 NSCLC
[8] = tested on: K-562 leukemia
[9] = tested on: MALME-3M melanoma
[10] = tested on: OVCAR-4 ovarian
[11] = tested on: OVCAR-5 ovarian
[12] = tested on: RXF 393 renal
[13] = tested on: SF-539 CNS
[14] = tested on: SK-MEL-5 melanoma
[15] = tested on: U251 CNS
[16] = tested on: UO-31 renal

| Compound | TGI [1] | TGI [2] | TGI [3] | TGI [4] | TGI [5] | TGI [6] | TGI [7] | TGI [8] | TGI [9] | TGI [10] | TGI [11] | TGI [12] | TGI [13] | TGI [14] | TGI [15] | TGI [16] |
| --- | --- | --- | --- | --- | --- | --- | --- | --- | --- | --- | --- | --- | --- | --- | --- | --- |
| CCOC(=O)c1sc2nc(SC)nc3c2c1NCN3c1ccc(F)c(F)c1 | 12.4 µM | 35.6 µM | 25.3 µM | > 100 µM | 54.6 µM | > 100 µM | 83 µM | > 100 µM | > 49.1 µM | 17.7 µM | > 100 µM | 16.7 µM | 11.7 µM | > 100 µM | 30.8 µM | > 63.3 µM |
| O=[N+]([O-])c1ccc(C(Nc2ccccc2)P(c2ccccc2)c2ccccc2)cc1 (configuration not stated) | > 100 µM | > 100 µM | > 100 µM | > 100 µM | > 100 µM | > 100 µM | > 100 µM | > 100 µM | > 100 µM | > 100 µM | > 100 µM | > 100 µM | > 100 µM | > 100 µM | > 100 µM | > 100 µM |
| Cc1cn(CCCCCCC2=NCCCN2)c(=O)[nH]c1=O | > 100 µM | > 100 µM | > 100 µM | > 100 µM | > 100 µM | > 100 µM | > 100 µM | > 100 µM | > 100 µM | > 100 µM | > 100 µM | > 100 µM | > 100 µM | > 100 µM | > 100 µM | > 100 µM |
| COc1cc(C2SC(C)C(=O)N2c2ccc(-c3csc(NS(=O)(=O)c4ccc(Cl)c(OC)c4)n3)cc2)ccc1O (configuration not stated) | > 100 µM | > 100 µM | > 100 µM | > 100 µM | > 100 µM | > 100 µM | > 100 µM | > 100 µM | 82.4 µM | 79.9 µM | > 100 µM | > 100 µM | > 100 µM | > 100 µM | > 100 µM | > 100 µM |
| C(/Cc1ccc2c(c1)OCO2)=N\NC1=NCCN1 | > 100 µM | 70.5 µM | > 100 µM | > 100 µM | > 100 µM | > 100 µM | > 100 µM | > 100 µM | > 100 µM | > 100 µM | > 100 µM | > 100 µM | > 100 µM | > 100 µM | > 100 µM | > 100 µM |
| CSc1c(C#N)c(N)nc2c(N=Nc3ccc(Br)cc3)c(N)nn12 | 11.3 µM | 52.9 µM | 25.1 µM | 18.5 µM | 12.5 µM | 12 µM | 18.9 µM | 21.4 µM | 24 µM | 15.1 µM | 33.3 µM | 21 µM | 23.6 µM | 40.2 µM | 16.8 µM | 28.6 µM |
| COC12CCCN1c1ccn(Cc3ccccc3)c(=O)c1C2=O (configuration not stated) | > 100 µM | > 100 µM | > 100 µM | > 100 µM | > 100 µM | > 100 µM | > 100 µM | > 100 µM | > 100 µM | > 100 µM | > 100 µM | > 100 µM | > 100 µM | > 100 µM | > 100 µM | > 100 µM |
| COc1ccc(/C=C/C(=O)c2cc(C(C)(C)C)c(O)c(C(C)(C)C)c2)cc1OC | 27.4 µM | > 79.7 µM | > 100 µM | 99.3 µM | 48.6 µM | > 100 µM | > 100 µM | > 89.6 µM | > 100 µM | > 92.9 µM | > 85.8 µM | 7.69 µM | 52.1 µM | 20.7 µM | 29.8 µM | 57.9 µM |
| CC(=O)OC(Cc1ccc2ccccc2n1)(C(F)(F)F)C(F)(F)F | 6.37 µM | 14.6 µM | 44.3 µM | 14.4 µM | 4.24 µM | 7.46 µM | 0.933 µM | > 100 µM | 5.21 µM | 7.08 µM | 10.2 µM | 2.84 µM | 7.71 µM | 1.38 µM | 18.2 µM | 7.12 µM |
| COC(OC)C1OCC(n2cc(F)c(=O)[nH]c2=O)C1O (configuration not stated) | > 100 µM | > 100 µM | > 100 µM | > 100 µM | > 100 µM | > 100 µM | > 100 µM | > 100 µM | > 100 µM | > 100 µM | > 100 µM | > 100 µM | > 100 µM | > 100 µM | > 100 µM | > 100 µM |
| CNC(=S)N/N=C(\C(=N/NC(=S)NC)c1ccccn1)c1ccccn1 | > 84.8 µM | > 100 µM | > 100 µM | > 44.6 µM | > 100 µM | > 100 µM | > 100 µM | > 100 µM | 98 µM | > 100 µM | > 100 µM | 41.1 µM | > 100 µM | > 67.6 µM | > 100 µM | > 69.6 µM |
| COC(=O)C1=C(OC(=O)/C=C/c2ccccc2)C(C(=O)OC)[C@@]2(O)[C@@H](C(=O)OC)[C@H](C)C[C@@H]1[C@@H]2C(=O)OC (some centres not stated) | 50 µM | 36.7 µM | 58.4 µM | > 100 µM | 88.4 µM | 37.6 µM | 48 µM | > 100 µM | 65.5 µM | > 100 µM | 46.1 µM | 34.1 µM | 52.6 µM | 87.9 µM | 45.6 µM | > 100 µM |
